By ED50 is commonly meant the midpoint of the dose-response relation. Read a low ED50 as greater potency. What is called IC50 is the concentration needed to halve the response being measured. The low end stands for greater potency, the high end for weaker potency.

Molecules are shown by their SMILES.

What all share (assay type): functional
Assay [1] deals with Mus musculus. Description: Ability to inhibit the accumulation of gamma-interferon (gamma-IFN) in the serum of […] parvum-primed mice by po administration.
The test system of assay [2] is Mus musculus. Kind of assay: Ability to inhibit the accumulation of inflammatory cytokine interleukin-1 alpha (IL-1 alpha) in the serum of […] parvum-primed mice by po administration.
Assay [3] has as its system Mus musculus. Description: Ability to inhibit the accumulation of tumor necrosis factor-alpha (TNF-alpha) in the serum of […] parvum-primed mice by po administration.
In assay [4] the test system is Mus musculus. Description: Ability to inhibit the accumulation of cytokine interleukin-6 (IL-6) in the serum of […] parvum-primed mice by po administration.
The species entered for assay [5] is Mus musculus. Description: In vitro inhibitory activity was measured for the release of tumor necrosis factor-alpha (TNF-alpha) from a murine monocytic cell line.

Regarding `CCCCCCC1(CCN(C)C)c2ccccc2CCc2ccccc21`, the ED50 in assay [1], in assay [2], in assay [3] and in assay [4] was above 25 mg/kg throughout.
Consider `CCOCC1(CCNC)c2ccccc2CCc2ccccc21`, for which the ED50 in assay [1], in assay [2], in assay [3] and in assay [4] was above 25 mg/kg in each case.
As to `CCOC1(CCN(C)C)c2ccccc2CCc2cccnc21` (configuration not stated), the ED50 in assay [1], in assay [2], in assay [3] and in assay [4] was above 25 mg/kg throughout.
With `CCOCC1(CCN(C)C)c2ccccc2CCc2ccccc21`, the ED50 in assay [1] was 13.5 mg/kg; in assay [2] it was 18.1 mg/kg; in assay [3], 19.6 mg/kg; in assay [4] it was above 25 mg/kg.
Taken in the same sequence, the figures for `CCOC1(CCN(C)C)c2ccccc2C=Cc2ccccc21` were 13.2 mg/kg, above 6.25 mg/kg, above 25 mg/kg and above 25 mg/kg.
With `CCOC1(CCN(C)C(C)=O)c2ccccc2CCc2ccccc21`, the ED50 in assay [1], in assay [2], in assay [3] and in assay [4] was above 25 mg/kg each time.
In the case of `CCCC1(CCN(C)C)c2ccccc2CCc2ccccc21`, the ED50 in assay [1] amounted to 10.8 mg/kg; in assay [2], 6.25 mg/kg; in assay [4] it was 23.3 mg/kg.
As to `CCOC1(CCN2CCCC2)c2ccccc2CCc2ccccc21`, the values for the ED50 in assay [1], in assay [2] and in assay [3] were 11.3 mg/kg, 11.1 mg/kg and 16.1 mg/kg, respectively.
Consider `CCCC1(CCCN(C)C)c2ccccc2CCc2ccccc21`, for which the ED50 in assay [1] is 5.9 mg/kg; in assay [2] it was 8.7 mg/kg; in assay [3], above 25 mg/kg; in assay [4], 15.8 mg/kg.
Taken in the same sequence, the figures for `CN(C)CCC1(O)c2ccccc2CCc2ccccc21` were above 25 mg/kg, above 25 mg/kg, above 25 mg/kg and above 25 mg/kg.
With `CCOC1(CCN(C)C)c2ccccc2CCc2ccccc21`, the ED50 in assay [1] was found to be 1.3 mg/kg; in assay [2] it was 2.4 mg/kg; in assay [3] it was 17.6 mg/kg; in assay [4], 8 mg/kg. For the same compound, half-maximal inhibition in assay [5] (IC50) required 1700 nM.
On to `CCCC1(CN(C)C)c2ccccc2CCc2ccccc21`, for which the ED50 in assay [1] was 3.9 mg/kg; in assay [2], above 25 mg/kg; in assay [3] it was above 25 mg/kg; in assay [4], 25 mg/kg.

For the origin of these results see ChEMBL document CHEMBL1128081, “Synthesis of dibenzo[a,d]cycloheptanes as cytokine biosynthesis inhibitors” (Bioorg Med Chem Lett, 1995).
